{"source": "patent US20060008520A1", "about": "“Delayed release formulations of 6-mercaptopurine” (priority 2004, published 2006)", "origin": "cited, not measured here"}
{"smiles": "Sc1ncnc2nc[nH]c12", "note": "[6-MP, 6-mercaptopurine]", "values": [{"measurement": "fraction of an oral dose absorbed", "value": "Approximately 50%"}]}
